Measured values as given in patent US8809368B2, “Compounds affecting gap junction activity” (Kansas State University Research Foundation, priority 2006, dated 2014).
“Also recorded” adds a separate entry of the source.

Columns and labels:
[1] = system: T47D cells; assay: Transepithelial electrical resistance (TEER), T47D monolayers; type: cell-based, human; details: 100, 200 or 500 nM, 48 hours, compared to control
Protocol: T47D cells were treated with 0, 100, 200, and 500 nM PQ1 for 48 hours. TEER assay was performed as described herein. TEER values of each treatment in KΩ/cm^2 were converted to relative percent of control.
Measurement of transepithelial electrical resistance. Cells were grown to 100% confluency on a 12-well transwell (BD Biosciences, San Jose, Calif.) and treated with 0, 100, 200, and 500 nM PQ1 for 48 hours. Transepithelial electrical resistance (TEER) of the T47D monolayers was measured by a high-precision. Resulting voltages were recorded with the aid of a differential amplifier with a high input resistance. Data were corrected for well area (given in Ω·cm^2).

[2] = system: Cx43; assay: Western blot of Cx43 and phosphorylated Cx43 in T47D cells; type: cell-based, human; details: 10, 100, 200 and 500 nM, 24 hours
Protocol: T47D cells were dosed with PQ1 for 24 hours. The Western blot analysis was performed as described in Materials and Methods. Whole cell extract was analyzed for Cx 43, Cx32, and Cx26. Experiment was performed at least three times.
Furthermore, whole cell extract of PQ1 treatment was analyzed for the changes in gap junctional proteins, connexins. Cells were treated with 10, 100, 200, and 500 nM PQ1 for 24 hours. Western blot analysis was performed against Cx26, Cx32, and Cx43 (FIG. 17). […] Anti-tubulin was used as a loading control.
Western Blot Analysis. Cells were grown in serum supplemented RPMI media until they were 90% confluent in 75 cm^2 flasks. Cells were kept in starving media containing phenol red-free DMEM with 5% charcoal dextran stripped serum, overnight. Cells were dosed with 0, 10, 100, 200 and 500 nM of PQ1 for 24 hours. Cells were washed three times with cold PBS and then were harvested using lysis buffer (20 mM Tris pH 7.5, 0.5 mM EDTA, 0.5 mM EGTA, 0.5% Triton X-100) with 1:1000 dilution of protease inhibitors (Sigma-Aldrich, Saint Louis, Mo.). Cell lysate was sonicated and centrifuged at 13,000 rpm for 30 minutes at 4° C. […] Western blots were detected by enhanced chemiluminescence detection reagents (Pierce, Rockford, Ill., USA).

[3] = system: HIF1α; assay: CoCl2 chemical hypoxia in R28 cells, HIF1α stabilization in nuclear extracts; type: cell-based, rat; details: PQ1 alone, up to 24 h
Protocol: (A) About 70% confluent retinal R28 cells were treated with 100, 200 and 500 μM CoCl2 for 24 h with or without the pre-treatment of PQ1 (10 μM, 40 min) in a cell culture chamber (5% CO2, room air, 37° C.). Caspase-3 activation was determined by Western blotting in whole cell homogenates (WCH). (B) HIF1α stabilization was measured in the nuclear extracts (NE) after treatment with 500 μM CoCl2 at different time intervals with or without the pretreatment of PQ1. […] Levels of Cx43 and phosphoCx43-Ser368 are measured in WCH. β-Actin is used as a loading control.
Approximately 70% confluent retinal R28 cells were pre-incubated with PQ1 (10 μM, 40 min), followed by CoCl2 treatments at 100, 200 and 500 μM for different time periods in a cell culture chamber (5% CO2, room air, 37° C.). Hypoxia induction was confirmed by testing the hypoxia-inducible factor 1-α (HIF1α) protein expression levels in nuclear extracts by Western blotting.
Nuclear extracts. […] The eluted nuclear proteins in the supernatant were collected and HIF1a protein levels were measured by Western blotting. […]

## COc1cc(NCCCN)c2nccc(C)c2c1Oc1cccc(C(F)(F)F)c1.O=C(O)CCC(=O)O [PQ1, 6-Methoxy-8-[(3-aminopropyl)amino]-4-methyl-5-(3-trifluoromethylphenyloxy) quinoline succinic acid]
[1]
  tight junction ion permeability by TEER: no significant effect
[2]
  Cx43 expression: no effect
[3]
  HIF1α stabilization: did not cause activation or stabilization; also recorded: did not have any effect
